Data on two compounds can be found in paper PMC6474902, “Examination of novel 4-aminoquinoline derivatives designed and synthesized by a hybrid pharmacophore approach to enhance their anticancer activities” (Scientific Reports, 2019).

The structures appear in SMILES notation. Like-named read-outs stand apart in the source and are kept apart here.

Test [1] has as its system lysosomal volume. Set-up: method as in PMID 16137197. The settings on record: cited from earlier work.
The test system of test [2] is 184B5. In words: SRB antiproliferative/antigrowth assay, non-cancer cells. Type of test: cell-based, human. The conditions noted are these: Homo sapiens, 184B5, 48 h, read-out: GI50 184B5. In outline: (§1)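 Cells seeded 24 h before exposure to seven concentrations (100 µM to 0.0064 µM) for 48 h at 37 °C. Growth by TCA fixation and SRB staining, absorbance 515–564 nm, relative to time-zero and untreated controls; GI50 from variable-slope sigmoidal fit, reported as greater/less than range limits when not reached.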

Test [3] deals with MCF10A. The description is as above. Type of test: cell-based, human. The conditions noted are these: Homo sapiens, MCF-10A, 48 h, read-out: GI50 MCF10A. In outline: as §1
Test [4] concerns MDA-MB468. Put plainly: SRB antiproliferative/antigrowth assay. Type of test: cell-based, human. The conditions noted are these: Homo sapiens, MDA-MB-468, 48 h, read-out: GI50 MB468. In outline:
as §1

In test [5] the test system is MDA-MB231. In words: SRB antiproliferative/antigrowth assay. Type of test: cell-based, human. The conditions noted are these: Homo sapiens, MDA-MB-231, 48 h, read-out: GI50 MB231. An outline of the steps:
as §1

Test [6] has as its system MCF7. In words: SRB antiproliferative/antigrowth assay. Type of test: cell-based, human. An outline of the steps: as §1
In test [7] the test system is HeLa cells. Put plainly: Sequential treatment with monastrol and compound 13, DNA content. The settings on record: 100 μM monastrol, 18 h. Type of test: cell-based, human. The procedure: 0 h 2 h post-monastrol 4 h post-monastrol 6 h post-monastrol […]
death. HeLa cells, treated with 100 μM of monastrol for 18 h (defined 0 h), were released into complete medium in the absence (sham) or presence of 10 μM compound 13 (VR23). Note that monastrol arrested cells […]

Regarding `CCN(CC)CCCC(C)Nc1ccnc2cc(Cl)ccc12` (centres unmarked) [Chloroquine, reference compound], the lysosomal volume result in test [1] is “causes an increase in lysosomal volume”. Also, the GI50 in test [2] was found to be 76.1 ± 1.1 µM; in test [3], 81.3 ± 1.3 µM; in test [4], 28.6 ± 1.3 µM; in test [5], 22.5 ± 1.4 µM; in test [6] (Homo sapiens, MCF7, 48 h, read-out: GI50 MCF7, SRB, 48 h post-treatment, mean of triplicates of at least two experiments) it was 38.4 µM; in test [6] (read-out: GI50 MCF7, SRB, 48 h post-treatment, mean of triplicates of at least two experiments), 38.4 ± 1.2 µM.

Take `CCOC(=O)C1=C(C)NC(=S)NC1c1cccc(O)c1` (centres unmarked) [monastrol]: in test [7], the cell cycle arrest entry is reported as “arrested cells at G2/M”.
